The test system of assay [1] is L1210. The assay is described as follows: (§1) In vitro inhibitory activity against growth of murine L1210 cells. The assay is classed as functional, cell-based. The settings on record: Mus musculus.
The subject of assay [2] is HT-1080. The assay is described as follows: In vitro inhibitory activity against growth of Human fibrosarcoma (HT1080) cells. The assay is classed as functional, cell-based.
For assay [3], the system named is KB. The assay is described as follows: In vitro inhibitory activity against growth of Human oral epidermoid carcinoma (KB) cells. The assay is classed as functional, cell-based.
Assay [4] relates to Lu-65. The assay is described as follows: In vitro inhibitory activity against growth of Human gaint cell carcinoma (Lu-65) cells. The assay is classed as functional, cell-based.
Assay [5] deals with OST. The assay is described as follows: In vitro inhibitory activity against growth of Human osteosarcoma (OST) cells. Format: functional, cell-based.
Assay [6] has as its system PC-13. The assay is described as follows: In vitro inhibitory activity against growth of Human large-cell carcinoma (PC-13) cells. The assay is classed as functional, cell-based.
Assay [7] concerns PC-3. The assay is described as follows: In vitro inhibitory activity against growth of Human lung adenocarcinoma (PC-3) cells. The assay is classed as functional, cell-based.
In assay [8] the test system is SW480. The assay is described as follows: In vitro inhibitory activity against growth of Human colon adenocarcinoma (SW-480) cells. Format: functional, cell-based.
Assay [9] concerns T-24. The assay is described as follows: In vitro inhibitory activity against growth of Human bladder transitional-cell carcinoma (T-24) cells. The assay is classed as functional, cell-based.
Assay [10] deals with PC-6. The assay is described as follows: In vitro inhibitory activity against growth of Human lung small-cell carcinoma (PC-6) cells. Format: functional, cell-based.
Assay [11] deals with L1210. The assay is described as follows: In vitro inhibitory activity against growth of murine L1210 cells at 100 ug/mL concentration. Format: functional. The settings on record: Mus musculus.
The subject of assay [12] is CCRF-CEM. The assay is described as follows: In vitro inhibitory activity against growth of Human acute lymphocytic leukemia (CCRF-CEM) cells. Format: functional, cell-based.
Assay [13] concerns COLO 205. The assay is described as follows: In vitro inhibitory activity against growth of Human colon adenocarcinoma (COLO 205) cells. Format: functional, cell-based.
For assay [14], the system named is G-292. The assay is described as follows: In vitro inhibitory activity against growth of Human osteogenic sarcoma (G-292) cells. Format: functional, cell-based. The note with it: G292.
In assay [15] the test system is HL-60. The assay is described as follows: In vitro inhibitory activity against growth of Human promyelocytic leukemia (HL-60) cells. The assay is classed as functional, cell-based.
The subject of assay [16] is HOS. The assay is described as follows: In vitro inhibitory activity against growth of Human osteogenic sarcoma (HOS) cells. Format: functional, cell-based.
The subject of assay [17] is HT-1376. The assay is described as follows: In vitro inhibitory activity against growth of Human bladder carcinoma (HT1376) cells. Format: functional, cell-based.
Assay [18] relates to K562. The assay is described as follows: In vitro inhibitory activity against growth of Human chronic myelogenous leukemia (K562 cells. The assay is classed as functional, cell-based.
Assay [19] has as its system PC-8. The assay is described as follows: In vitro inhibitory activity against growth of Human lung adenocarcinoma (PC-8) cells. The assay is classed as functional, cell-based.
Assay [20] has as its system PANC-1. The assay is described as follows: In vitro inhibitory activity against growth of Human pancreas epitheloid carcinoma (PANC-1) cells. The assay is classed as functional, cell-based.
The subject of assay [21] is QG-56. The assay is described as follows: In vitro inhibitory activity against growth of Human lung squamous-cell carcinoma (QG-56) cells. Format: functional, cell-based.
The subject of assay [22] is QG-90. The assay is described as follows: In vitro inhibitory activity against growth of Human lung small cell carcinoma (QG-90) cells. Format: functional, cell-based.
The subject of assay [23] is RPMI-8226. The assay is described as follows: In vitro inhibitory activity against growth of Human myeloma (RPMI 8226) cells. Format: functional, cell-based.
Assay [24] relates to KU-2 cell line. The assay is described as follows: In vitro inhibitory activity against growth of Human renal-cell carcinoma (KU-2) cells. The assay is classed as functional, cell-based.
Assay [25] relates to Calu-1. The assay is described as follows: In vitro inhibitory activity against growth of Human epidermoid carcinoma (Calu-1) cells. Format: functional, cell-based.
The test system of assay [26] is U-937. The assay is described as follows: In vitro inhibitory activity against growth of Human histocytic lymphoma (U937) cells. The assay is classed as functional, cell-based.
The subject of assay [27] is SAOS-2. The assay is described as follows: In vitro inhibitory activity against growth of Human osteogenic sarcoma (Saos-2) cells. Format: functional, cell-based.
The subject of assay [28] is L1210. Described as §1. Format: functional, Mus musculus.

≈ marks a conversion by molar mass, not a printed value. Bounds are passed on as bounds.

Drawing on ChEMBL document CHEMBL1125841, “Nucleosides and nucleotides. 96. Synthesis and antitumor activity of 5-ethynyl-1-beta-D-ribofuranosylimidazole-4-carboxamide (EICAR) and its derivatives” (J Med Chem, 1991), this text covers IC50, inhibition and Inhibition for 18 compounds.

For orientation: IC50 means the concentration needed to halve the response being measured. A higher IC50 goes with weaker potency in that assay. Broadly, the inhibition is the drop in the measured response relative to a control, in per cent. The term Inhibition denotes the drop in the measured response relative to a control, in per cent.

For `CCCC#Cc1c(C#N)ncn1C1O[C@H](CO)[C@@H](O)[C@H]1O` (some centres not stated), in assay [1], the IC50 amounted to 14.8 µg/mL (≈ 50.8 µM).
As to `NC(=O)c1ncn([C@@H]2O[C@H](CO)[C@@H](O)[C@H]2O)c1O` [MIZORIBINE], the IC50 in [2], in [3], in assay [4], in assay [5], in [6] and in assay [7] was over 100 µg/mL throughout. The IC50 is 42 µg/mL (≈ 162 µM) in [8], over 100 µg/mL in [9] and 49 µg/mL (≈ 189 µM) in [10].
For `NC(=O)c1ncn(C2O[C@H](CO)[C@@H](O)[C@H]2O)c1C#CCCc1ccccc1` (some centres not stated), the inhibition at 100 µg/mL in assay [11] is 8.5%.
On to `O=c1[nH]cc(F)c(=O)[nH]1` [FLUOROURACIL], for which the 50% inhibitory concentration (IC50) was 2.1 µg/mL (≈ 16.1 µM) in [12]; 0.1 µg/mL (≈ 0.769 µM) in assay [13]; over 3.3 µg/mL in [14]; 1.33 µg/mL (≈ 10.2 µM) in assay [15]; 0.79 µg/mL (≈ 6.07 µM) in [16]; 0.58 µg/mL (≈ 4.46 µM) in [17]. The IC50 in assay [18] amounted to 2.2 µg/mL (≈ 16.9 µM); in assay [19] it was 0.42 µg/mL (≈ 3.23 µM); in [20], 0.22 µg/mL (≈ 1.69 µM); in assay [21], 0.18 µg/mL (≈ 1.38 µM); in assay [22], 0.22 µg/mL (≈ 1.69 µM); in assay [23], 0.07 µg/mL (≈ 0.538 µM). Moreover, the IC50 in assay [24] was 0.28 µg/mL (≈ 2.15 µM); in assay [25], over 3.3 µg/mL; in assay [26], 0.11 µg/mL (≈ 0.846 µM); in [27] it was 0.78 µg/mL (≈ 6 µM).
Regarding `C=Cc1c(C(N)=O)ncn1C1O[C@H](CO)[C@@H](O)[C@H]1O` (some centres not stated), in [11], the inhibition at 100 µg/mL was determined as 0.4%.
Consider `NC(=O)c1ncn(C2O[C@H](CO)[C@@H](O)[C@H]2O)c1C#CCO` (some centres not stated), for which the IC50 in assay [3] was 7.5 µg/mL (≈ 25.2 µM); in assay [1], 0.7 µg/mL (≈ 2.35 µM); in assay [4], 54 µg/mL (≈ 182 µM); in [5] it was over 100 µg/mL; in assay [6] it was 44 µg/mL (≈ 148 µM); in assay [7], 54 µg/mL (≈ 182 µM). Also, the figures for the IC50 in [8] and in assay [9] were 3.8 µg/mL (≈ 12.8 µM) and 8.8 µg/mL (≈ 29.6 µM), respectively.
For the compound `NC(=O)c1ncn(C2O[C@H](CO)[C@@H](O)[C@H]2O)c1C#CC1CCCCC1` (some centres not stated), the inhibition at 100 µg/mL in [11] is 18.9%.
Take `CCCCC#Cc1c(C(N)=O)ncn1C1O[C@H](CO)[C@@H](O)[C@H]1O` (some centres not stated): in assay [1], the IC50 turned out to be 2.29 µg/mL (≈ 7.08 µM).
Still for that read-out and setting: the value for `CC(C)(O)C#Cc1c(C(N)=O)ncn1C1O[C@H](CO)[C@@H](O)[C@H]1O` (some centres not stated) was 4.8 µg/mL (≈ 14.8 µM); that for `NC(=O)c1ncn(C2O[C@H](CO)[C@@H](O)[C@H]2O)c1C#Cc1ccccc1` (some centres not stated) was 20.6 µg/mL (≈ 60 µM).
For the compound `C#Cc1c(C(N)=O)ncn1[C@@H]1O[C@H](CO)[C@@H](O)[C@H]1O`, the IC50 in [12] was found to be 1.03 µg/mL (≈ 3.85 µM); in [13], 0.11 µg/mL (≈ 0.412 µM); in [14], 2.55 µg/mL (≈ 9.54 µM); in assay [15], 0.23 µg/mL (≈ 0.861 µM); in assay [16], 0.28 µg/mL (≈ 1.05 µM); in assay [2] it was 3 µg/mL (≈ 11.2 µM). Moreover, the 50% inhibitory concentration (IC50) was 0.14 µg/mL (≈ 0.524 µM) in assay [17]; 0.17 µg/mL (≈ 0.636 µM) in assay [18]; 12 µg/mL (≈ 44.9 µM) in assay [3]; 0.18 µg/mL (≈ 0.674 µM) in [1]; 3.8 µg/mL (≈ 14.2 µM) in assay [4]; 28 µg/mL (≈ 105 µM) in assay [5]. Moreover, the IC50 stood at 86 µg/mL (≈ 322 µM) in [6]; 96 µg/mL (≈ 359 µM) in [7]; 0.54 µg/mL (≈ 2.02 µM) in [19]; 0.16 µg/mL (≈ 0.599 µM) in assay [20]; 0.18 µg/mL (≈ 0.674 µM) in assay [21]; 0.23 µg/mL (≈ 0.861 µM) in assay [22]. In addition, the IC50 in [23] is 0.44 µg/mL (≈ 1.65 µM); in assay [8] it was 3.3 µg/mL (≈ 12.3 µM); in [9], 0.88 µg/mL (≈ 3.29 µM); in assay [24] it was under 0.1 µg/mL; in [25], 0.21 µg/mL (≈ 0.786 µM); in assay [26], 0.11 µg/mL (≈ 0.412 µM). The IC50 worked out at 4.23 µg/mL (≈ 15.8 µM) in [27] and 0.46 µg/mL (≈ 1.72 µM) in assay [10].
In the case of `N#Cc1ncn(C2O[C@H](CO)[C@@H](O)[C@H]2O)c1C#Cc1ccccc1` (some centres not stated), the IC50 in assay [1] was 80.3 µg/mL (≈ 247 µM).
`N#CCCCC#Cc1c(C(N)=O)ncn1C1O[C@H](CO)[C@@H](O)[C@H]1O` (some centres not stated) had an Inhibition in assay [28] of 3.6%.
With `NC(=O)c1ncn(C2O[C@H](CO)[C@@H](O)[C@H]2O)c1C#CCC1CCCC1` (some centres not stated), in assay [11], the inhibition at 100 µg/mL is -10.7%.
In turn, `C#Cc1c(C#N)ncn1C1O[C@H](CO)[C@@H](O)[C@H]1O` (some centres not stated) had an IC50 in assay [1] of 1.9 µg/mL (≈ 7.62 µM).
Still for that read-out and setting: the value for `N#Cc1ncn(C2O[C@H](CO)[C@@H](O)[C@H]2O)c1C#CCCO` (some centres not stated) was 3.3 µg/mL (≈ 11.3 µM).
As to `NC(=O)c1ncn(C2O[C@H](CO)[C@@H](O)[C@H]2O)c1C#CCCO` (some centres not stated), the IC50 is over 100 µg/mL in assay [2]; 9.5 µg/mL (≈ 30.5 µM) in [3]; 1.28 µg/mL (≈ 4.11 µM) in [1]; 15 µg/mL (≈ 48.2 µM) in [4]; 51 µg/mL (≈ 164 µM) in assay [5]; 26 µg/mL (≈ 83.5 µM) in [6]. Moreover, the IC50 was over 100 µg/mL in [7], 6.2 µg/mL (≈ 19.9 µM) in assay [8], 15 µg/mL (≈ 48.2 µM) in [9] and 12 µg/mL (≈ 38.5 µM) in assay [10].
As for `N#Cc1ncn(C2O[C@H](CO)[C@@H](O)[C@H]2O)c1C#CCO` (some centres not stated), inhibition in [1] was half-maximal at 4.1 µg/mL (≈ 14.7 µM) (IC50).
